# Values of other authors in patent publication US20170209405A1, “APPLICATION OF COMPOUND MIXTURES TO CONTROL OXIDATION” (priority 2016, published 2017).
# What was measured:
# [1] = adults
# [2] = tested on: sperm DNA damage (DNA-strand breaks); conditions: men aged 45 and up, highest dosages of vitamin C (up to 700 mg daily)
SMILES,dose above which it may be toxic to the liver [1],less DNA damage than those who took less of the supplements [2] [%]
NC(=O)c1cccnc1 [nicotinamide],exceeding 3 g/day,
O=C1O[C@H]([C@@H](O)CO)C(O)=C1O [vitamin C],,20
